Experimental data published in US20200315998A1, “COMPOSITION FOR IMPROVING INTESTINAL BARRIER FUNCTION” (SUNTORY HOLDINGS LIMITED, priority 2017, published 2020).

Test system: Caco-2 cells
Experiment: Evaluation of intestinal barrier function improvement: TEER reduction suppression in Caco-2 monolayer with inflammatory cytokines (TNFα, IL-1β, IFNγ)
Format: cell-based, human
Details: for Synergistic effect (M.V./T/V/) / TEER reduction suppression ratio (%) +gallic acid (actual measurement value) (M.V.) / Synergistic effect (M.V./T.V.): combined use of phenolic compound and gallic acid; for TEER reduction suppression ratio (%) +gallic acid (theoretical value) (T.V.): sum of ratios of phenolic compound alone and gallic acid alone; for Relative value of TEER reduction suppression ratio: sample alone 1 μM
Excerpt: The intestinal barrier function improvement effect is indicated by, for example, increase in the electrical resistance value (transepithelial electric resistance: TEER) of the intestinal epithelial cells or suppression of the decrease in the TEER. A substance increasing the TEER or suppressing the decrease thereof has the action of normalizing or strengthening the tight junction in the intestinal epithelial cells. The intestinal barrier function improvement effect is also indicated by decrease in the amount of a substance permeating from the intestinal side of the intestinal epithelial cells to the inside of the body. The person skilled in the art can select a specific method of evaluating the intestinal barrier function improvement effect depending on the purpose. For exarple, as shown in Examples to be described later, a method for measuring TEER using an intestinal permeation model using human intestinal epithelial cells (Caco-2 cells) can be used. Specifically, inflammatory cytokine (TNFα, IL-1β, IFNγ and the like) is added into Caco-2 monolayer cultured cells to produce a state where the intestinal barrier function can be collapsed in human. If the addition of a test substance suppresses the decrease in the TEER as compared with the case where the substance is not added, the test substance can be evaluated to have the intestinal barrier function improvement effect.
Caco-2 cells were cultured for three weeks at 37° C. in Transwell (manufactured by Millicell Corporation) using DMEM (Dulbecco's modified Eagle's medium). A medium was removed from a plate of cultured Caco-2 cells, and the well was washed 3 times with serum-free DMEM. The well was filled with the medium. Then, the transepithelial electrical resistance (TEER) of Caco-2 monolayer cells was measured by Millicell-ERS (manufactured by Millipore Corporation). Cells (TEER≥1000 Ω·cm^2) determined that a sufficient tight junction was formed were selected, and used for the next screening. Then, to test solutions (media) on both apical and basolateral membrane sides, a sample, TNFα (40 ng/mL), IL-1β (20 ng/mL), and IFNγ (10 ng/mL) were added, followed by cultivating for 48 hours. The sample was dissolved in dimethyl sulfoxide (DMSO), and the solution was then added to the test solutions. In this case, a well to which inflammatory cytokine (TNFα, IL-1β, and IFNγ) and the sample were not added was provided as normal. A well to which inflammatory cytokine was added and the sample was not added was provided as control. After the cultivation, TEER was measured again, to evaluate whether the sample suppressed the reduction (decrease) of TEER due to the inflammatory cytokine.
The TEER reduction suppression ratio (%) due to the sample was determined according to the following formula from the TEER values of the well to which the sample was added, normal, and control.
(Calculating formula of TEER reduction suppression ratio) TEER reduction suppression ratio (%)=100×((TEER of well to which sample is added)−(TEER of control))/((TEER of normal)−(TEER of control))
In this evaluation system, as the TEER reduction suppression ratio (%) is higher, an intestinal barrier function improvement effect is higher.

Compound: O=C(O)/C=C/c1ccccc1O [2-Coumaric acid, 2-coumaric acid]
- Synergistic effect (M.V./T/V/) (each 10 μM): 3.0
- TEER reduction suppression ratio (%) +gallic acid (actual measurement value) (M.V.) (each 10 μM): 46%

Compound: stenophyllanin B
- Synergistic effect (M.V./T.V.) (each 1 μM): 1.3
- TEER reduction suppression ratio (%) +gallic acid (actual measurement value) (M.V.) (each 1 μM): 82%
- TEER reduction suppression ratio (%) +gallic acid (theoretical value) (T.V.) (1 μM each): 66%

Compound: O=c1cc(-c2ccc(O)c(O)c2)oc2cc(O)cc(O)c12 [Luteolin, luteolin]
- Synergistic effect (M.V./T/V/) (each 10 μM): 1.6
- TEER reduction suppression ratio (%) +gallic acid (actual measurement value) (M.V.) (each 10 μM): 58%

Compound: O=C(O)c1cc(O)c(O)c(O)c1 [Gallic acid (GA), 3,4,5-trihydroxybenzoic acid]
- TEER reduction suppression ratio of gallic acid relative to quercetin at the same concentration (100 μM each, gallic acid vs quercetin): about 1.15 times
- Relative value of TEER reduction suppression ratio (Evaluation 1, catechin (CA) set to 1.0): 0.4
- Relative value of TEER reduction suppression ratio (Evaluation 2, epicatechin (EC) set to 1.0): 0.5
- Relative value of TEER reduction suppression ratio (Evaluation 3, gallocatechin (GC) set to 1.0): 0.3
- Relative value of TEER reduction suppression ratio (Evaluation 4, epigallocatechin (EGC) set to 1.0): 0.2
- Suppression of the reduction of TEER due to inflammatory cytokine (gallic acid alone, 1 μM and 10 μM): suppressed the reduction of TEER
- TEER reduction suppression ratio (sample alone 100 μM, TNFα 40 ng/mL, IL-1β 20 ng/mL, IFNγ 10 ng/mL, 48 hours): 86.5%

Compound: stenophyllanin A
- Synergistic effect (M.V./T.V.) (each 1 μM): 1.7
- TEER reduction suppression ratio (%) +gallic acid (actual measurement value) (M.V.) (each 1 μM): 95%
- TEER reduction suppression ratio (%) +gallic acid (theoretical value) (T.V.) (1 μM each): 56%

Compound: O=C(OC1C(OC(=O)c2cc(O)c(O)c(O)c2)[C@H](O)OC2COC(=O)c3cc(O)c(O)c(O)c3-c3c(cc(O)c(O)c3O)C(=O)O[C@H]21)c1cc(O)c(O)c(O)c1 (stereo partly drawn) [Tellimagrandin I, tellimagrandin I]
- Synergistic effect (M.V./T.V.) (each 1 μM): 1.6
- TEER reduction suppression ratio (%) +gallic acid (actual measurement value) (M.V.) (each 1 μM): 92%

Compound: Oc1cc(O)cc(/C=C/c2ccc(O)c(O)c2)c1 [Piceatannol, piceatannol]
- Synergistic effect (M.V./T/V/) (each 10 μM): 1.1
- TEER reduction suppression ratio (%) +gallic acid (actual measurement value) (M.V.) (each 10 μM): 53%

Compound: Oc1cc(O)c2c(c1)O[C@H](c1ccc(O)c(O)c1)[C@H](O)[C@H]2c1c(O)cc(O)c2c1O[C@H](c1ccc(O)c(O)c1)[C@H](O)C2 [Procyanidin B2, procyanidin B2]
- Synergistic effect (M.V./T/V/) (each 10 μM): 1.5
- TEER reduction suppression ratio (%) +gallic acid (actual measurement value) (M.V.) (each 10 μM): 76%
- TEER reduction suppression ratio (%) +gallic acid (theoretical value) (T.V.) (10 μM each): 51%

Compound: Oc1cc(O)c2c(c1)O[C@H](c1ccc(O)c(O)c1)[C@@H](O)[C@@H]2c1c(O)cc(O)c2c1O[C@H](c1ccc(O)c(O)c1)[C@@H](O)C2 [Procyanidin B3, procyanidin B3]
- Synergistic effect (M.V./T/V/) (each 10 μM): 1.9
- TEER reduction suppression ratio (%) +gallic acid (actual measurement value) (M.V.) (each 10 μM): 77%
- TEER reduction suppression ratio (%) +gallic acid (theoretical value) (T.V.) (10 μM each): 53%

Compound: O=C1OCC2O[C@@H](O)C3OC(=O)c4cc(O)c(O)c(O)c4-c4c(cc(O)c(O)c4O)C(=O)OC3[C@@H]2OC(=O)c2cc(O)c(O)c(O)c2-c2c1cc(O)c(O)c2O (stereo partly drawn) [Pedunculagin, pedunculagin]
- Synergistic effect (M.V./T.V.) (each 1 μM): 1.7
- TEER reduction suppression ratio (%) +gallic acid (actual measurement value) (M.V.) (each 1 μM): 90%

Compound: O=c1cc(-c2ccc(O)cc2)oc2cc(O)cc(O)c12 [Apigenin, apigenin]
- Synergistic effect (M.V./T/V/) (each 10 μM): 4.1
- TEER reduction suppression ratio (%) +gallic acid (actual measurement value) (M.V.) (each 10 μM): 51%

Compound: O=C(O[C@@H]1COC(=O)c2cc(O)c(O)c(O)c2-c2c(cc(O)c(O)c2O)C(=O)O[C@H]1[C@@H]1OC(=O)c2cc(O)c(O)c(O)c2-c2c(O)c(O)c(O)c3c2C(=O)O[C@H]1[C@@H]3O)c1cc(O)c(O)c(O)c1 [Casuarinin, casuarinin]
- Synergistic effect (M.V./T.V.) (each 1 μM): 1.4
- TEER reduction suppression ratio (%) +gallic acid (actual measurement value) (M.V.) (each 1 μM): 81%

Compound: O=C(O[C@@H]1Cc2c(O)cc(O)cc2O[C@@H]1c1cc(O)c(O)c(O)c1)c1cc(O)c(O)c(O)c1 [Epigallocatechin gallate, epigallocatechin gallate]
- Synergistic effect (M.V./T/V/) (each 10 μM): 1.5
- TEER reduction suppression ratio (%) +gallic acid (actual measurement value) (M.V.) (each 10 μM): 114%
- TEER reduction suppression ratio (%) +gallic acid (theoretical value) (T.V.) (10 μM each): 76%
